Experimental data from patent US20210052582A1, “METHODS OF USE AND PHARMACEUTICAL COMPOSITIONS OF A SELECTIVE SYK INHIBITOR” (Portola Pharmaceuticals, Inc., priority 2018, published 2021).
Counter-ions that a name gives are not always drawn.

Assays:
[1] = Dissolution study of HCl salt and free base in formulation buffer; type: physicochemical; conditions: for solubility (visual appearance): 10 mg/mL (1%) in pH 6, 10 mM citrate buffer, 1% PEG400, 1% Glycerin, 0.3% NaCl, 0.05% PS80
Description: A dissolution study was performed in which the HCl salt or the free base were added to the following formulation buffer at a concentration of 10 mg/mL (1%): • pH 6, 10 mM citrate buffer, 1% PEG400, 1% Glycerin, 0.3% NaCl, 0.05% PS80.
The pH was increased for soluble samples to better understand their properties. The appearance of the samples was visually observed for clarity or cloudiness. […] The free base was not soluble.

[2] = system: Mice sensitized with short ragweed allergen; assay: Murine model of allergic conjunctivitis (conjunctival allergen challenge, short ragweed); type: in vivo, mouse
Description: Mice were sensitized with subcutaneously injected short ragweed allergen (day 1, day 11), and underwent conjunctival allergen challenge (CAC) on day 18 with short ragweed allergen. Following challenge, the mice were randomized into treatment groups (n=8) and given topical test compounds: vehicle, 0.1% Compound 1, 1% Compound 1, 1% prednisolone, or saline (BSS) twice a day for 2 days, and three times a day for an additional 4 days during allergen challenges. Challenges were conducted twice daily, on day 21 thru 24. Responses to allergen challenge were evaluated after challenges 1, 4, 6 and 8.

[3] = Free base solubilization with solubilizers; type: physicochemical; conditions: aqueous solubilizer (excipient) mixture, aqueous with cosolvent or surfactant or cyclodextrin; combination of 3% Glycerin, 5% PEG 400, 5% PEG-35 castor oil, 15% polysorbate 60, 4% polysorbate 80, 2% PVP K29/32, 10% propylene glycol
Text: The free base was not soluble with various solubilizers.

[4] = system: patients with acute or chronic allergic conjunctivitis; assay: Clinical conjunctival allergen challenge (CAC) study; type: in vivo, human
Text: In a study utilizing the clinical model of the conjunctival allergen challenge (CAC) qualifying patients with acute or chronic allergic conjunctivitis were randomized to receive one of the five interventions listed below, each was given six doses at 1 drop per dose. The CAC model is a standardized clinical methodology for evaluation of novel drugs for allergy and anti-inflammatory activity, accepted by the FDA for clinical development of novel therapeutics, and has been used for development of 19 drugs currently on the market. In the CAC model, doses of allergen are administered in a controlled fashion to patients eyes in the office setting to induce a controlled allergic reaction. Drug is administered at pre-specified timepoints and signs and symptoms are collected also at pre-specified timepoints to assess efficacy.
• Composition A: 0.5% w/w Compound 1 HCl salt, 1.5% w/w glycerin, 0.01% w/w BAC in 10 mM phosphate buffer, pH 6.0. • Composition B: 1.0% w/w Compound 1 HCl salt, 1.5% w/w glycerin, 0.01% w/w BAC in 10 mM phosphate buffer, pH 6.0. • Placebo: 0.01% w/w BAC, 1.5% w/w glycerol, pH 6.0. After receiving screening and baseline CACs, patients were assigned in a masked randomization fashion to receive a study treatment at 8 hour or 15 min pre-CAC at Visits 4b and 5, respectively. […]
• Ocular Itching [Time Frame: 5, 7, and 10 minutes post allergen administration (CAC)] Ocular Itching were assessed by the subjects using a 0-4 scale (0=none to 4=severe). Average of ocular itching score over both eyes were analyzed. • Conjunctival Redness [Time Frame: 7, 15, and 20 minutes post allergen administration CAC] • Conjunctival Redness were assessed by the investigator using a 0-4 scale (0=none to 4=severe). Average of conjunctival redness score over both eyes were analyzed. • Other variables assessed for efficacy include lid swelling, chemosis, tearing, nasal symptoms, and indication of biological activity via exploratory assessment of biomarkers, and exploratory imaging of inflammation with in vivo confocal microscopy. […]

## NC(=O)c1cnc(N[C@@H]2CCCC[C@@H]2N)nc1Nc1cccc(-c2ncccn2)c1 [Compound 1, 2-((1R,2S)-2-aminocyclohexylamino)-4-(3-(pyrimidin-2-yl)phenylamino)pyrimidine-5-carboxamide]
[1]; listed as free base
  solubility (visual appearance): not soluble
[2]; 1% Compound 1
  test days with statistically significant reduction in overall mean hyperemia: 3 of 4
[2]; Compound 1 (0.1%), topical
  test days with significantly reduced mean change in hyperemia compared to saline: 2 of 4
[2]; Compound 1 (1%), topical
  test days with significantly reduced mean change in hyperemia (pre-versus post-CAC) compared to saline: 4 of 4
[2]; mouse, in vivo
  ocular discharge, lid swelling, or squinting: No significant changes
[2]; murine model
  relief of allergic conjunctivitis: showed efficacy
[3]
  solubility: 1000 to 10000 µg/mL
[4]; Compound 1 groups
  treatment emergent adverse events: rated mild
[4]; both concentrations (0.5%, 1%)
  biological effect: clear and consistent biological effect
[4]; human, in vivo
  reduction of redness, 8 hours versus 15 minutes following dosing: reduced redness to a greater extent at 8 hours following dosing compared with 15 minutes

## NC(=O)c1cnc(N[C@@H]2CCCC[C@@H]2N)nc1Nc1cccc(-c2ncccn2)c1 [HCl salt, 2-((1R,2S)-2-aminocyclohexylamino)-4-(3-(pyrimidin-2-yl)phenylamino)pyrimidine-5-carboxamide]
[1]
  solubility (visual appearance): soluble even at a pH of 6
[1]; same formulation buffer, pH increased
  behaviour as pH was increased from 6: precipitates formed

## C[C@]12C=CC(=O)C=C1CC[C@@H]1[C@@H]2[C@@H](O)C[C@@]2(C)[C@H]1CC[C@]2(O)C(=O)CO [prednisolone, reference compound]
[2]; prednisolone (1.0%), topical, positive control
  test days with significant decrease in the mean change in hyperemia: 2 of 4
